Paper PMC6199744, “Development of Chemical Proteomics for the Folateome and Analysis of the Kinetoplastid Folateome” (ACS Infectious Diseases, 2018)
Where two headings read alike, the source gives them in different places.

Experiments:
Type in all cases: binding
[1] = target: T1, HeLa cell extract proteins (Homo sapiens, UniProt O00410)
T1 construct: endogenous in cells; host or cells: HeLa cell extract
T1 sequence (O00410 1-1097): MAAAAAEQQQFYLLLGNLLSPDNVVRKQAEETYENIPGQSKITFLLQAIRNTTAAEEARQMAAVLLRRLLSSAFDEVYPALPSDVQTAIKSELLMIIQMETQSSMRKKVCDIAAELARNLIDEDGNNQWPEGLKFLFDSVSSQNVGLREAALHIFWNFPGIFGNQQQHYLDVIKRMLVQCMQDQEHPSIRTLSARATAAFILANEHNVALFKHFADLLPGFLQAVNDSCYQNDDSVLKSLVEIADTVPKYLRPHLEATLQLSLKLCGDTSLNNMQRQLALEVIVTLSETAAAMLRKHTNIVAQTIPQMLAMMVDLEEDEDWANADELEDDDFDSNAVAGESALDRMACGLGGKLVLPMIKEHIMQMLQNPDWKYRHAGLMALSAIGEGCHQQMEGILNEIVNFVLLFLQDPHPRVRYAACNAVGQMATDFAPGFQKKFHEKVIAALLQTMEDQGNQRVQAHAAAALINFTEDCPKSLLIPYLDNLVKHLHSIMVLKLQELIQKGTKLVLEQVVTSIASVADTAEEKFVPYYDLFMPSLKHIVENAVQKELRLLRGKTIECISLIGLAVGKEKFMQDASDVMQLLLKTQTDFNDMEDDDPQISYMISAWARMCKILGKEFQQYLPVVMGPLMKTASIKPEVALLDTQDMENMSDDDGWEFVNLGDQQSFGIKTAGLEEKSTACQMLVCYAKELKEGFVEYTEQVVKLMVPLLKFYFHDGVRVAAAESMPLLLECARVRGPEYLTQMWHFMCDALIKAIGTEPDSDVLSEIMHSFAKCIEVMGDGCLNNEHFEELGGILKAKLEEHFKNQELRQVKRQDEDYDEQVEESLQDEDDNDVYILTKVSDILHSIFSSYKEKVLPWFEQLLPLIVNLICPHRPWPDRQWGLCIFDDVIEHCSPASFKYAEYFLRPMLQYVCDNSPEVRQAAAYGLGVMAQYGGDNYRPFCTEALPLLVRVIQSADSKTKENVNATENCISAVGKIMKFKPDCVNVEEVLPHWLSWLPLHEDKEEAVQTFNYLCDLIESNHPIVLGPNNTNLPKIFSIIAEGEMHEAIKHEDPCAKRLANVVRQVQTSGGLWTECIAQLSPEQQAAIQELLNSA

[2] = target: T2, HeLa cell extract proteins (Homo sapiens, UniProt O00764)
T2 construct: endogenous in cells; host or cells: HeLa cell extract
T2 sequence (O00764 1-312): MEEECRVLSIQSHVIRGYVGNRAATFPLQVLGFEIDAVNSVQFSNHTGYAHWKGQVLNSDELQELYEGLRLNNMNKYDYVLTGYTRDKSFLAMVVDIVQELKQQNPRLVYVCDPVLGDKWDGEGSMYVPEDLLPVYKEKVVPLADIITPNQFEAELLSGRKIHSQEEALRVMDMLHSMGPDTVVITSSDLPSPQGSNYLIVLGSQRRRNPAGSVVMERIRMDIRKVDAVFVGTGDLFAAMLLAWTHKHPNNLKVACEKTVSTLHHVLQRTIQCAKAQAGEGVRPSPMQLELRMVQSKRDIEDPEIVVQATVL

[3] = target: T3, HeLa cell extract proteins (Homo sapiens, UniProt P13073)
T3 construct: endogenous in cells; host or cells: HeLa cell extract

[4] = target: T4, HeLa cell extract proteins (Homo sapiens, UniProt P17987)
T4 construct: endogenous in cells; host or cells: HeLa cell extract

[5] = target: T5, HeLa cell extract proteins (Homo sapiens, UniProt P28074)
T5 construct: endogenous in cells; host or cells: HeLa cell extract
T5 sequence (P28074 60-263): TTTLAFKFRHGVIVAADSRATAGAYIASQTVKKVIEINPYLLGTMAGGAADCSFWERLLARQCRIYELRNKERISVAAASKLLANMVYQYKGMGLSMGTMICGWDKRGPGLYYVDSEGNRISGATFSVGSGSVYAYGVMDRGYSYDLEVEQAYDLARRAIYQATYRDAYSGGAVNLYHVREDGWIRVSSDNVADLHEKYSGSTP

[6] = target: T6, HeLa cell extract proteins (Homo sapiens, UniProt Q00325)
T6 construct: endogenous in cells; host or cells: HeLa cell extract
T6 sequence (Q00325 50-362): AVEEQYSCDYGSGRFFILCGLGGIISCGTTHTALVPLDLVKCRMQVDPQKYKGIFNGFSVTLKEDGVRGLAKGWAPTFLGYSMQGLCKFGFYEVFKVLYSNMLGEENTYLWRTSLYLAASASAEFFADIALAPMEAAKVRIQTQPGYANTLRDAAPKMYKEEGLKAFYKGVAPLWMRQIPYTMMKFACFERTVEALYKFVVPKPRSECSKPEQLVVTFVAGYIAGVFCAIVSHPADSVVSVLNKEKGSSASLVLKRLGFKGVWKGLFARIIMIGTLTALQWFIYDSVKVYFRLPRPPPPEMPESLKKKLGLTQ

[7] = target: T7, HeLa cell extract proteins (Homo sapiens, UniProt Q5R3I4)
T7 construct: endogenous in cells; host or cells: HeLa cell extract

[8] = HeLa, protein TTC38 (HYPOTHETICAL PROTEIN LOC55020)

T3 sequence (P13073 23-169): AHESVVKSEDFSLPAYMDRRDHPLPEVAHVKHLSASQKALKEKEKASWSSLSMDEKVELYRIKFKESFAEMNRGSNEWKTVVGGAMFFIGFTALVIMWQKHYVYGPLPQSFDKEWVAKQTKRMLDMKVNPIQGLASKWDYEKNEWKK
T4 sequence (P17987 whole entry): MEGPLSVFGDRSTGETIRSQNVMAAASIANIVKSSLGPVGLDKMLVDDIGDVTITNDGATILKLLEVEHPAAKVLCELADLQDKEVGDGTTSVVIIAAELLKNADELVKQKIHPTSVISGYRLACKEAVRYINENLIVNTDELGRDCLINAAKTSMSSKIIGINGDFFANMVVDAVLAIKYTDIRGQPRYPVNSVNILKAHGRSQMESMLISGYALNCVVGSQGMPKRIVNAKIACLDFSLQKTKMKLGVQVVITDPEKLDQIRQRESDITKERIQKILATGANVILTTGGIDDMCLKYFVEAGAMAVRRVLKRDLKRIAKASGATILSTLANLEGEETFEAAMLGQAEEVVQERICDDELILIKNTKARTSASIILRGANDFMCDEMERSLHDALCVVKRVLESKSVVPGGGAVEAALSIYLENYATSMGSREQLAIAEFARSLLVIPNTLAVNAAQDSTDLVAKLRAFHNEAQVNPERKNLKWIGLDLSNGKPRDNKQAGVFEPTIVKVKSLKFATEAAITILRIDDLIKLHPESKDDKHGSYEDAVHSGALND
T7 sequence (Q5R3I4 whole entry): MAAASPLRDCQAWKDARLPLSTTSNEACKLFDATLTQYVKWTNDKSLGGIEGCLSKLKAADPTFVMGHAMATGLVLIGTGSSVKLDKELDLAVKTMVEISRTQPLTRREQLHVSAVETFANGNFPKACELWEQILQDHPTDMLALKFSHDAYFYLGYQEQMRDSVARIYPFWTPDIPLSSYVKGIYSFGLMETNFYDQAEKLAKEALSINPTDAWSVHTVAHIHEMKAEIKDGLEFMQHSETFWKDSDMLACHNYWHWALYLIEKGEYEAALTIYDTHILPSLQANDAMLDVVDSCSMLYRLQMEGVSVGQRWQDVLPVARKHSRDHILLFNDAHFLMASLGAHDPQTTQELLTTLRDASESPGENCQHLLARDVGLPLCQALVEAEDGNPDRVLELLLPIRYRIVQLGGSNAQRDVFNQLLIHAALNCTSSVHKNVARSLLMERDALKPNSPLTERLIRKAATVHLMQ

| SMILES | fold changes relative to vehicle control ([1]; protein IPO5, HeLa) | fold changes relative to vehicle control ([2]; HeLa, protein PDXK) | fold changes relative to vehicle control ([3]; HeLa, protein COX4I1) | fold changes relative to vehicle control ([4]; protein TCP1, HeLa) | fold changes relative to vehicle control ([5]; protein PSMB5, HeLa) | fold changes relative to vehicle control ([6]; HeLa, protein SLC25A3) | fold changes relative to vehicle control ([7]; HeLa, protein TTC38) | fold changes relative to vehicle control [1] | fold changes relative to vehicle control [2] | fold changes relative to vehicle control [3] | fold changes relative to vehicle control [4] | fold changes relative to vehicle control [5] | fold changes relative to vehicle control [6] | fold changes relative to vehicle control [7] | fold changes relative to vehicle control ([1]; HeLa, protein IPO5) | fold changes relative to vehicle control ([2]; protein PDXK, HeLa) | fold changes relative to vehicle control ([4]; HeLa, protein TCP1) | fold changes relative to vehicle control ([5]; HeLa, protein PSMB5) | fold changes relative to vehicle control ([7]; HeLa, protein TTC38 (HY[…] LOC55020)) | fold changes relative to vehicle control [7, 8] |
| --- | --- | --- | --- | --- | --- | --- | --- | --- | --- | --- | --- | --- | --- | --- | --- | --- | --- | --- | --- | --- |
| Nc1nc2cccc(-c3ccccc3)c2n1Cc1ccc(Cl)c(Cl)c1 [compound 3] | 1.03 | 0.9 | 1 | 1.09 | 0.95 | 1 | 1 |  |  |  |  |  |  |  |  |  |  |  |  |  |
| Nc1nc2[nH]cc(CCc3ccc(C(=O)N[C@@H](CCC(=O)O)C(=O)O)cc3)c2c(=O)[nH]1 [PTX, pemetrexed] |  |  |  |  |  |  |  | 0.91 | 0.83 | 0.98 | 1.08 | 1 | 0.98 | 0.93 |  |  |  |  |  |  |
| Nc1nc2c(c(=O)[nH]1)N(C=O)C(CNc1ccc(C(=O)N[C@@H](CCC(=O)O)C(=O)O)cc1)CN2 (stereo partly shown) [LEU, leucovorin] |  |  | 0.9 |  |  | 0.98 |  |  |  |  |  |  |  |  | 0.93 | 1.09 | 1.04 | 0.97 | 1.03 |  |
| CCCCCCOc1cccc(Cc2cnc(N)nc2N)c1 [compound 2] | 1.27 | 0.97 | 1.21 | 1.65 | 1.24 | 0.96 | 0.68 |  |  |  |  |  |  |  |  |  |  |  |  |  |
| NCCOCCOCC(=O)Nc1nc2ncc(CNc3ccc(C(=O)NC(CCC(=O)O)C(=O)O)cc3)nc2c(=O)[nH]1 (stereo not shown) [compound 6] |  |  | 1.04 |  |  | 1.04 |  |  |  |  |  |  |  |  | 0.99 | 0.87 | 1.32 | 1.05 |  | 0.89 |
| CCCCCCOc1ccc(Cc2cnc(N)nc2N)cc1 [compound 1] | 0.99 | 1.03 | 1.03 | 1.22 | 1.11 | 0.98 | 1 |  |  |  |  |  |  |  |  |  |  |  |  |  |
| NCCCNc1ccc(C(=O)NC(CCC(=O)O)C(=O)O)cc1 (stereo not shown) [compound 7] |  |  | 1.17 |  |  | 1.11 |  |  |  |  |  |  |  |  | 0.94 | 1.03 | 1.07 | 1 |  | 0.99 |
